In the NIST ThermoML archive (doi:10.1021/je400408w):

Assay: molar heat capacity at constant pressure; xn = mol fraction of the nth substance listed
Details: 100 kPa, Liquid

Cc1ccccc1Cl [2-chlorotoluene] + CN1CCCC1=O
molar heat capacity at constant pressure [J/K/mol]
Details | 293.15 K | 298.15 K | 303.15 K
x2 = 0 | 176.43 | 178.21 | 180.01
x2 = 0.0766 | 177.61 | 179.54 | 181.65
x2 = 0.1176 | 178.19 | 180.12 | 182.31
x2 = 0.1545 | 178.64 | 180.7 | 182.82
x2 = 0.1932 | 179.13 | 181.09 | 183.22
x2 = 0.2387 | 179.69 | 181.63 | 183.63
x2 = 0.2768 | 180.04 | 181.98 | 183.93
x2 = 0.3121 | 180.38 | 182.21 | 184.15
x2 = 0.3543 | 180.68 | 182.53 | 184.34
x2 = 0.3871 | 180.8 | 182.64 | 184.39
x2 = 0.4267 | 180.94 | 182.73 | 184.44
x2 = 0.4653 | 180.97 | 182.78 | 184.48
x2 = 0.5065 | 180.95 | 182.72 | 184.39
x2 = 0.5412 | 180.74 | 182.59 | 184.2
x2 = 0.5849 | 180.46 | 182.25 | 183.84
x2 = 0.6219 | 180.05 | 181.77 | 183.46
x2 = 0.6618 | 179.44 | 181.22 | 182.89
x2 = 0.7064 | 178.51 | 180.31 | 182.03
x2 = 0.7417 | 177.61 | 179.4 | 181.15
x2 = 0.7817 | 176.49 | 178.16 | 179.97
x2 = 0.8213 | 175.04 | 176.75 | 178.4
x2 = 0.8543 | 173.73 | 175.32 | 176.97
x2 = 0.8886 | 172.09 | 173.57 | 175.14
x2 = 0.9133 | 170.81 | 172.18 | 173.6
x2 = 0.9476 | 168.91 | 170.02 | 171.22

Cc1ccccc1Cl [2-chlorotoluene] + O=C1CCCN1
molar heat capacity at constant pressure [J/K/mol]
Details | 293.15 K | 298.15 K | 303.15 K
x2 = 0 | 176.43 | 178.21 | 180.01
x2 = 0.0426 | 177.32 | 179.22 | 181.34
x2 = 0.0815 | 178.2 | 180.1 | 182.4
x2 = 0.1243 | 179.12 | 181.15 | 183.61
x2 = 0.1654 | 180 | 182.08 | 184.67
x2 = 0.2067 | 180.7 | 182.94 | 185.64
x2 = 0.2432 | 181.17 | 183.62 | 186.37
x2 = 0.2851 | 181.73 | 184.27 | 186.97
x2 = 0.3215 | 182.2 | 184.63 | 187.49
x2 = 0.3645 | 182.46 | 184.96 | 187.88
x2 = 0.4088 | 182.43 | 185.2 | 188.02
x2 = 0.4426 | 182.43 | 185.07 | 187.93
x2 = 0.4854 | 182.08 | 184.93 | 187.72
x2 = 0.5231 | 181.74 | 184.55 | 187.37
x2 = 0.5612 | 181.22 | 183.98 | 186.88
x2 = 0.5987 | 180.54 | 183.29 | 186.2
x2 = 0.6316 | 179.75 | 182.48 | 185.46
x2 = 0.6724 | 178.85 | 181.51 | 184.4
x2 = 0.7143 | 177.56 | 180.26 | 183.11
x2 = 0.7543 | 176.48 | 178.86 | 181.78
x2 = 0.796 | 175.15 | 177.45 | 180.2
x2 = 0.8342 | 173.85 | 176.13 | 178.66
x2 = 0.8724 | 172.53 | 174.47 | 177.02
x2 = 0.9088 | 171.32 | 173.04 | 175.4
x2 = 0.9426 | 170.19 | 171.72 | 173.87

O=C1CCCN1 [2-pyrrolidinone] + Cc1ccc(Cl)cc1
x1 = 1
Details | molar heat capacity at constant pressure [J/K/mol]
293.15 K | 168.36
298.15 K | 169.55
303.15 K | 171.18

O=C1CCCN1 [2-pyrrolidinone] + Cc1cccc(Cl)c1
x1 = 1
Details | molar heat capacity at constant pressure [J/K/mol]
293.15 K | 168.36
298.15 K | 169.55
303.15 K | 171.18

O=C1CCCN1 [2-pyrrolidinone] + Cc1ccccc1Cl
x1 = 1
Details | molar heat capacity at constant pressure [J/K/mol]
293.15 K | 168.36
298.15 K | 169.55
303.15 K | 171.18

Cc1cccc(Cl)c1 [3-chlorotoluene] + CN1CCCC1=O
molar heat capacity at constant pressure [J/K/mol]
Details | 293.15 K | 298.15 K | 303.15 K
x2 = 0 | 175.21 | 176.46 | 177.67
x2 = 0.0566 | 176.9 | 178.51 | 180.44
x2 = 0.0976 | 178.07 | 179.91 | 182.2
x2 = 0.1345 | 179.19 | 181.07 | 183.53
x2 = 0.1724 | 180.12 | 182.1 | 184.76
x2 = 0.2187 | 181.31 | 183.26 | 186.04
x2 = 0.2565 | 182.12 | 184.06 | 186.9
x2 = 0.2934 | 182.85 | 184.82 | 187.61
x2 = 0.3342 | 183.56 | 185.46 | 188.27
x2 = 0.3745 | 184.2 | 185.98 | 188.79
x2 = 0.4187 | 184.71 | 186.4 | 189.2
x2 = 0.4568 | 184.96 | 186.73 | 189.36
x2 = 0.4986 | 185.09 | 186.84 | 189.47
x2 = 0.5386 | 185.06 | 186.75 | 189.31
x2 = 0.5783 | 184.78 | 186.58 | 189.08
x2 = 0.6112 | 184.42 | 186.25 | 188.68
x2 = 0.6542 | 183.69 | 185.54 | 187.92
x2 = 0.6923 | 182.87 | 184.66 | 187.08
x2 = 0.7328 | 181.83 | 183.55 | 185.83
x2 = 0.7786 | 179.95 | 181.8 | 183.95
x2 = 0.8189 | 178.11 | 180 | 182.01
x2 = 0.8324 | 177.43 | 179.29 | 181.17
x2 = 0.8621 | 175.85 | 177.56 | 179.36
x2 = 0.9078 | 172.92 | 174.43 | 175.98
x2 = 0.9427 | 170.28 | 171.62 | 172.92

Cc1cccc(Cl)c1 [3-chlorotoluene] + O=C1CCCN1
molar heat capacity at constant pressure [J/K/mol]
Details | 293.15 K | 298.15 K | 303.15 K
x2 = 0 | 175.21 | 176.46 | 177.67
x2 = 0.0398 | 175.59 | 176.89 | 178.18
x2 = 0.0798 | 176.05 | 177.3 | 178.65
x2 = 0.1089 | 176.37 | 177.6 | 179.06
x2 = 0.1443 | 176.74 | 178.08 | 179.55
x2 = 0.1853 | 177.1 | 178.48 | 179.99
x2 = 0.2234 | 177.49 | 178.84 | 180.42
x2 = 0.2613 | 177.74 | 179.25 | 180.77
x2 = 0.3095 | 178.12 | 179.52 | 181.15
x2 = 0.3452 | 178.21 | 179.69 | 181.37
x2 = 0.3865 | 178.3 | 179.9 | 181.5
x2 = 0.4432 | 178.35 | 179.92 | 181.58
x2 = 0.4836 | 178.22 | 179.73 | 181.43
x2 = 0.5213 | 177.98 | 179.53 | 181.21
x2 = 0.5643 | 177.56 | 179.17 | 180.87
x2 = 0.6074 | 177.17 | 178.68 | 180.45
x2 = 0.6408 | 176.64 | 178.24 | 179.95
x2 = 0.6853 | 175.94 | 177.56 | 179.23
x2 = 0.7214 | 175.28 | 176.81 | 178.55
x2 = 0.7654 | 174.4 | 175.89 | 177.62
x2 = 0.8069 | 173.44 | 174.91 | 176.65
x2 = 0.8453 | 172.56 | 173.94 | 175.71
x2 = 0.8812 | 171.61 | 172.99 | 174.68
x2 = 0.9203 | 170.57 | 171.93 | 173.57
x2 = 0.9564 | 169.6 | 170.88 | 172.55
